In patent publication US5066655A (priority 1989, dated 1991):

Key:
[1] = tested on: A2 adenosine receptor (guinea pig taenia caecum); assay: Antagonism of adenosine agonists in isolated guinea pig taenia caecum (contractile tone); details: for antagonism of adenosine agonists in taenia caecum: guinea pig taenia caecum relaxation; for sensitization of the tissue: guinea pig taenia caecum, high concentrations
Procedure: Taenia from the guinea pig caecum were cut into lengths of 1.5-2 cm. The tissues were suspended in a 20 ml organ bath containing de Jalon's solution that was gassed with 95% O2 + 5% CO2 and maintained at 31° C. The resting tension was 1.5 g. The contractile response was measured isotonically.
(§1) The ability of the compounds to antagonize the effects of agonists was analyzed using modified Schild plots.

[2] = tested on: adenosine receptors (A1: heart rate; A2: blood pressure); assay: In vivo test on heart rate, blood pressure and ECG in anesthetized rats; parameters: species or system rat
From the text: Drug injections were made intravenously through a jugular cannula.

[3] = molecular target: T1, A1 adenosine receptor (guinea pig atrium) (Cavia porcellus, UniProt P47745); assay: Antagonism of adenosine agonists in isolated guinea pig left atrium (force of contraction); details: for antagonism of adenosine agonists in atria: guinea pig atria, result in words
T1 construct: The left atria from male guinea pigs were isolated; from tissue; host or cells: left atria of male guinea pigs
T1 sequence (P47745 1-326): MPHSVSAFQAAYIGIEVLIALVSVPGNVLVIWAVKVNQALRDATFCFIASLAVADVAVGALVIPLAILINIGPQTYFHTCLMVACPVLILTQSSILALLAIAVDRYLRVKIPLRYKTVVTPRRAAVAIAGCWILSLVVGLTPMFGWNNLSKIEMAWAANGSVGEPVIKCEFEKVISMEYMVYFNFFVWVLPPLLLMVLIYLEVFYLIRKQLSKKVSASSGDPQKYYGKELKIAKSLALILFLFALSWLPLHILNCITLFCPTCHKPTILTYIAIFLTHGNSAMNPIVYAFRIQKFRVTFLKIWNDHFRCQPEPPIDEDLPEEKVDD
Procedure: The left atria from male guinea pigs were isolated, suspended between two punctate electrodes, and placed in a 20 ml organ bath that contained Krebs-Hensileit solution that was continuously gassed with 95% O2 + 5% CO2 and maintained at 31° C. The resting tension was one gram. Theatria were stimulated electrically at 1 hz, 1 ms duration pulses at supramaximal voltage. The force of contraction was recorded isometrically.
as §1

[4] = tested on: coronary A2 receptors; details: cited from earlier work
[5] = tested on: adenosine receptor in human fibroblast cell line; details: cited from earlier work
[6] = molecular target: T2, A1 receptors of rat fat cells (Rattus norvegicus, UniProt P25099); assay: Antagonism of R-PIA-induced inhibition of rat fat cell adenylate cyclase activity; assay type: biochemical; details: rat fat cell membranes, result in words
T2 sequence (P25099 1-326): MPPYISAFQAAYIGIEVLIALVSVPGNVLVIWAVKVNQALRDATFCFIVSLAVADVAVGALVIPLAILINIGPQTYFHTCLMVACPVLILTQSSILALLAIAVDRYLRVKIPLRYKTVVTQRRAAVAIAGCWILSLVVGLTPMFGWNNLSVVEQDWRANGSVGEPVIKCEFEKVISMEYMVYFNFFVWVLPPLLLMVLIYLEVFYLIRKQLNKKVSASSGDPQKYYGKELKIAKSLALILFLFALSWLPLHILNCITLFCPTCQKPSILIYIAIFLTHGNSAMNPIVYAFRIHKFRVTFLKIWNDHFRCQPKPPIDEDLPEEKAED
Procedure: (§2) Human platelet, rat pheochromocytoma (PC12) cell, rat fat cell and rat cerebral cortex membranes were prepared as described (4,5,6). Adenylate cyclase activity and binding [^3 H]PIA to cerebral cortex membranes were determined essentially as described (4,5,6). KB values for the compounds were determined as described (4). […] EC50 and IC50 values for the agonists were obtained from the concentration-response curves by linear regression after logit-log transformation. KB values of the antagonists were calculated using the Schild equation KB =C/(CR-1), where C denotes the concentration of the competitor and CR the ratio of the EC50 and IC50 values in the presence and absence, respectively, of the competitor. IC50 of the compounds for inhibition of [^3 H]PIA binding to cerebral cortex membranes were transformed into Ki values as described (6).

[7] = tested on: A2 receptors of rat pheochromocytoma (PC12) cells; assay: Antagonism of NECA-induced stimulation of adenylate cyclase activity of PC12 cell membranes; assay type: biochemical; details: NECA-stimulated adenylate cyclase, result in words
Procedure: as §2

[8] = molecular target: T3, A2 receptors of human platelets (Homo sapiens, UniProt P29274); assay: Antagonism of NECA-induced stimulation of adenylate cyclase activity of human platelet membranes; assay type: biochemical; details: for antagonist potency at platelet A2 receptor: human platelet membranes, NECA-stimulated adenylate cyclase, result in words
Procedure: as §2
In these cells, A2 receptor-mediated stimulation of adenylate cyclase results in an inhibition of aggregation (5,7).

[9] = tested on: A1 and A2 adenosine receptors; assay: Activity at adenosine receptors, A1 versus A2 selectivity (overall); assay type: biochemical; details: in words
Procedure: as §2

[10] = molecular target: T4, A1 receptors (Rattus norvegicus, UniProt P25099); assay: Activity at A1 adenosine receptors (overall, fat cells and brain membranes); assay type: biochemical; details: discussion, fat cell and brain data
T4 sequence (P25099 1-326): T2 sequence (P25099 1-326)
Procedure: as §2

[11] = molecular target: T5, A1 receptors of rat cerebral cortex membranes (Rattus norvegicus, UniProt P25099); assay: Inhibition of [3H]PIA binding to rat cerebral cortex membranes
T5 sequence (P25099 1-326): T2 sequence (P25099 1-326)
Procedure: as §2

[12] = tested on: A2 receptors; details: literature; cited from earlier work
[13] = tested on: A1 adenosine receptors; details: literature; cited from earlier work
[14] = molecular target: T3, A2 receptors of human platelets; details: cited from earlier work
[15] = tested on: A2 receptors of PC12 cells; details: cited from earlier work

T3 sequence (P29274 whole entry): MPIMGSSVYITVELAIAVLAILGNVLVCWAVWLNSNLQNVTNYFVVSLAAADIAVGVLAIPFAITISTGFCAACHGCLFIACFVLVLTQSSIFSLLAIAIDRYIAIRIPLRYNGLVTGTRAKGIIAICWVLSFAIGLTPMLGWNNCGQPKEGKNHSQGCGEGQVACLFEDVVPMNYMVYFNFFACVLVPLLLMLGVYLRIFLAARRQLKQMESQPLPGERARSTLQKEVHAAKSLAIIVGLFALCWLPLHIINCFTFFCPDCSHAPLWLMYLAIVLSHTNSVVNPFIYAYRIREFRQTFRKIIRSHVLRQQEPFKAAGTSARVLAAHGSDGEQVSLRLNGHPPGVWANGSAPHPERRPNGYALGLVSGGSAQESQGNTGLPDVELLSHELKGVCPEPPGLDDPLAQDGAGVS

## Cn1cnc2c(N[C@H]3C[C@H]4CC[C@@H]3C4)ncnc21 (relative stereo) [Example 22, N^6-(endonorbornyl)-9-MA]
[1]
  antagonism of adenosine agonists in taenia caecum: did not competitively antagonize the effects of adenosine agonists
  sensitization of the tissue: some sensitization of the tissue
[2]
  cardioselectivity in vivo: cardioselective adenosine receptor antagonist in vivo
[2]; i.v.
  effect on adenosine-induced changes of blood pressure, heart rate and P-R interval: attenuated the effects of subsequently administered adenosine on all parameters measured
[2]; i.v., high doses of adenosine
  effect on adenosine-induced heart block: substantially reduced
[2]; i.v., prior administration
  effect on NECA action on the heart: attenuated the effects of NECA on the heart
  effect on NECA-induced decrease in blood pressure: minimally affecting the NECA-induced decrease in blood pressure
[3]
  antagonism of adenosine agonists in atria: competitive antagonists
[3]; listed as Ex. 22
  antagonism of adenosine agonists in atria: most potent antagonist
[3]; read-out: Affinity constants (pKB) (converted)
  Kb: 0.525 µM

## OC[C@H]1O[C@@H](n2cnc3c(Oc4ccccc4)ncnc32)[C@H](O)[C@@H]1O [6-phenoxypurine riboside]
[4]
  activity at coronary A2 receptors: inactive or nearly so

## Nc1ncnc2nc[nH]c12 [Example 1, Adenine, reference compound]
[5]; adenosine-induced, human fibroblast cell line
  specific, competitive antagonism of cyclic AMP accumulation: specific, competitive antagonist
[5]; competitive antagonism of adenosine-induced cyclic AMP accumulation, human fibroblast cell line
  Ki: 200 µM
[6]
  antagonist potency at A1 receptors of fat cells: does not affect R-PIA-induced inhibition of fat cell adenylate cyclase activity
[7]
  antagonist potency at A2 receptor of PC12 cells: very weak antagonist
[8]
  antagonist potency at platelet A2 receptor: very weak antagonist
[8]; human platelets, data not shown
  effect on basal adenylate cyclase activity: does not affect basal adenylate cyclase activity

## Cn1cnc2c(N)ncnc21 [Example 2, 9-Methyladenine, reference compound]
[5]; relative to adenine
  potency increase by methylation of adenine at the 9-position: about 4 fold
[6]
  antagonist potency at A1 receptors of fat cells: antagonizes the effect of R-PIA
[8]
  antagonist potency at platelet A2 receptor: more potent than the adenine itself

## Cn1cnc2c(NC3CCCC3)ncnc21 [Example 4, N^6 -Cyclopentyl-9-MA]
[1]
  antagonism of adenosine agonists in taenia caecum: did not competitively antagonize the effects of adenosine agonists
  sensitization of the tissue: some sensitization of the tissue
[9]
  potency at adenosine receptors (subtype not stated): more potent than 9-methyladenine
[9]; listed as N^6 -Cyclopentyl
  receptor selectivity A1 versus A2: selective for A1 receptors
[9]; listed as cyclopentyl-
  receptor selectivity A1 versus A2: selective for receptors
[6]
  antagonist potency at A1 receptors of fat cells: more potent than the parent compound 9-methyladenine
[10]
  activity at A1 receptors, in words: most potent of N^6 -substituted 9-methyladenines at A1 receptors
[3]
  antagonism of adenosine agonists in atria: competitive antagonists
[8]
  antagonist potency at platelet A2 receptor: more potent than 9-methyladenine itself
[8]; human platelets versus rat PC12 cells
  potency at platelet A2 receptor relative to PC12 A2 receptor: more potent at the platelet A2 receptor than at the PC12 A2 receptor
[11]
  inhibition of [3H]PIA binding (Ki), in words: more potent

## Cn1cnc2c(NC3(C)CCCC3)ncnc21 [Example 5, N^6 -Methylcyclopentyl-9-MA]
[9]
  receptor selectivity A1 versus A2: selective for receptors
[6]
  antagonist potency at A1 receptors of fat cells: less potent
[10]
  activity at A1 receptors, in words: reduces activity at A1 receptors
[7]
  antagonist potency at A2 receptor of PC12 cells: reduces potency in PC12 cells
[8]
  antagonist potency at platelet A2 receptor: less potent than the parent cyclopentyl analog

## CCNC(=O)[C@H]1O[C@@H](n2cnc3c(N)ncnc32)[C@H](O)[C@@H]1O [NECA, 5'-N-ethylcarboxamido-adenosine]
[12]
  potency at A2 receptors, in words: more potent than N^6 -substituted analogs at A2 receptors

## OC[C@H]1O[C@@H](n2cnc3c(NCc4ccccc4)ncnc32)[C@H](O)[C@@H]1O [N^6 -benzyladenosine]
[13]
  affinity/activity at A1 receptors, in words: low activity
[14]
  agonist potency at platelet A2 receptors, in words: more potent of the N^6 -substituted adenosines

## OC[C@H]1O[C@@H](n2cnc3c(NC4CCC4)ncnc32)[C@H](O)[C@@H]1O [N^6 -cyclobutyl-]
[15]
  agonist potency at PC12 A2 receptors, in words: more potent of the series
[14]
  agonist potency at platelet A2 receptors, in words: more potent of the N^6 -substituted adenosines

## CNc1ncnc2c1ncn2[C@@H]1O[C@H](CO)[C@@H](O)[C@H]1O [N^6 -methyladenosine]
[13]
  affinity/activity at A1 receptors, in words: low activity

## OC[C@H]1O[C@@H](n2cnc3c(NCCc4ccsc4)ncnc32)[C@H](O)[C@@H]1O [N^6-2-(3-thienylethyl)-]
[14]
  agonist potency at platelet A2 receptors, in words: more potent of the N^6 -substituted adenosines

## CC1(Nc2ncnc3c2ncn3[C@@H]2O[C@H](CO)[C@@H](O)[C@H]2O)CCCC1 [N^6-(1-methylcyclopentyl)adenosine]
[13]
  affinity/activity at A1 receptors, in words: reduced compared to N^6 -cyclopentyladenosine

## C[C@H](Cc1ccccc1)Nc1ncnc2c1ncn2[C@@H]1O[C@H](CO)[C@@H](O)[C@H]1O [R-PIA, N^6 -R-1-phenyl-2-propyladenosine]
[15]
  agonist potency at PC12 A2 receptors, in words: more potent of the series
[13]
  affinity/activity at A1 receptors, in words: very high affinity for A1 adenosine receptors
[14]
  agonist potency at platelet A2 receptors, in words: more potent of the N^6 -substituted adenosines
